# Experimental data reported in patent US6693073B2, “Pulmonary delivery of active agents” (Emisphere Technologies, Inc., priority 1998, dated 2004).
# Like-named read-outs stand apart in the source and are kept apart here.
# Key:
# [1] = rat, in vivo
# Protocol: Each rat was weighed and identified using an indelible marker and anesthetized by intraperitoneal injection of ketamine: Xylazine: Acepromazine cocktail, at 80 mg/kg, 10 mg/kg and 2.0 mg/kg, respectively and returned to its cage. The rat was transferred to the surgical bench and placed on a heating blanket thermostatically controlled via rectal probe, once deep anesthesia was achieved.
# The right jugular vein of each rat was catheterized using silicone tubing and the patency of the catheter was confirmed by slowly flushing the cannula with 200 μl heparin saline and then withdrawing 100 μl of blood. The cannula was then cleared with 200 μl of heparinized saline solution.
# An endotrachcal tube was inserted using a fiber optic laryngoscope. The syringe (Hamilton syringe) of the instillator was attached to the endotracheal tube and used to instill solution (100 μl) in the airways. The endotracheal tube was removed following administration, and the breathing rate was monitored throughout the remainder of the study.
# Blood samples (500 μl) were withdrawn at 0, 10, 30, 60, 90, 120 and 180 min and the cannula flushed with approximately 200 μl of heparinized saline solution. The blood was collected in 1 ml tuberculin syringes (containing 100 μl heparin 20 μ/ml) placed directly into microcentrifuge tubes.
# Blood samples were immediately centrifuged at 10 000 rpm for 4 min.
# Average insulin plasma concentrations over time were subjected to standard compartmental and non-compartmental pharmacokinetic analysis.
# Average concentrations of insulin were fitted to the following equation:
# CPins=A(e^−ke 1+e^−ka 1) (Eq.1)
# where A=D ka/Vd (ka−ke) is the concentration of drug in the body at time zero, ka is the first order absorption rate constant, ke is the first order elimination rate constant.
# The area under the lung concentration-time curve (AUC0−1) was calculated by the trapezoidal rule. Interpolation to infinity was performed by dividing the last Cins measured by the first-order rate constant of the terminal phase. The total area under the curve was estimated by the summation of these two compounds.
# The elimination half-life was calculated from 0.693/ke where ke is the slope of the terminal phase of the log of the concentration-time profile.
# The non-compartment analysis for insulin plasma concentrations over time was performed using standard techniques. The time to peak CPins (Tmax) and peak CPins (Cmax) were determined from the non-fitted average plasma concentrations (CPins) versus-time profiles for the treatments. AUC was calculated by the trapezoidal rule. MRT was not calculated due to a lack of data following intravenous administration from which to calculate pharmacokinetic parameters.
# plasma glucose = test: Plasma glucose pharmacodynamics after lung spray-IT instillation to rats; format: in vivo, Sprague Dawley female rats
# Protocol: Determination of fasting plasma glucose levels was performed using the Ektachem DT Slide (GLU) method. The analysis is based on the enzyme-catalyzed reaction of glucose with molecular oxygen, followed by a second reaction that produces a highly-colored red dye. The intensity of the color is proportional to the amount of glucose in the sample.
# The percentage minimum plasma glucose concentration (%MPGC) and the time T to attain each %MPGC (T%MPGC) were determined from the average plasma glucose levels versus-time profiles for the treatments.
# The area above the curve effect (AACE) was calculated as follows:
# AACE=Total area−AUCE (Eq.2)
# where AUCE represents the area under the curve effect calculated using the trapezoidal rule.
# The percentage total reduction in plasma glucose from 0→t (%TRPG 0→t) was determined using the following equation:
# %TRPG0→t=100(AACE/total area) (Eq.3)
# Solubility of carriers = format: physicochemical; details: water, thermodynamic from solid; clear solution, pH 6.85
# [2] = Serum insulin after pulmonary instillation of insulin with carrier compound (Example 4); format: in vivo, rat; details: rats, spray instillation into airway; insulin 0.03 mg/kg with carrier compound 16 mg/kg
# Protocol: Carrier compound B, carrier compound C sodium salt, and carrier compound D in Table 10 were tested as follows.
# An endotracheal tube (spray instillator from Penn Century of Philadelphia, Pa.) with a syringe (Hamilton syringe) attached to the endotracheal tube was inserted using a fiber optic laryngoscope.
# [3] = lung spray-IT, insulin 0.01 mg/kg alone
# [4] = lung spray-IT, insulin 0.05 mg/kg alone
# [5] = spray-IT, porcine insulin 0.01 mg/kg, Table 3
# [6] = spray-IT, porcine insulin 0.05 mg/kg, Table 3
# [7] = spray-IT, porcine insulin 0.1 mg/kg, Table 3
# [8] = spray-IT, porcine insulin 0.5 mg/kg, Table 3
# [9] = spray-IT, porcine insulin 1.0 mg/kg, Table 3
molecule,measurement,setting,value
Porcine Insulin: Lyophilized porcine insulin 25.9 IU/mg (Emisphere Technologies),half-life of decline in plasma concentrations,[1],27.8 to 142.4 min
same,t½ (abs),[1]; 0.001 mg/kg,27.8 min
same,t½ (elim),[1]; 0.001 mg/kg,3.0 min
same,t½ (abs),[1]; 0.005 mg/kg,42.6 min
same,t½ (elim),[1]; 0.005 mg/kg,3.0 min
same,tmax,[1]; 0.01 mg/kg,10 min
same,tmax,[1]; 0.05 mg/kg,10 min
same,AUC,[1]; 0.1 mg/kg,9517.5
same,tmax,[1]; 0.1 mg/kg,10 min
same,AUC,[1]; 0.5 mg/kg,60345
same,tmax,[1]; 0.5 mg/kg,30 min
same,AUC,[1]; 1 mg/kg,178143.5
same,tmax,[1]; 1 mg/kg,30 min
same,relative bioavailability,[1]; sc,12.46%
same,% MPGC,plasma glucose; [3],70.02%
same,% TRPG0-3 hr,plasma glucose; [3],10.5±1.5%
same,AACE0-t,plasma glucose; [3],1892 ± 989 mcU/min/ml
same,T % MPGC,plasma glucose; [3],180 min
same,% TRPG0-3 hr,"plasma glucose; lung spray-IT, insulin 0.01 mg/kg alone, listed as Insulin alone",10.5 ± 1.5%
same,% MPGC,plasma glucose; [4],35.7%
same,% TRPG0-3 hr,plasma glucose; [4],47±10%
same,AACE0-t,plasma glucose; [4],8497 ± 1716 mcU/min/ml
same,T % MPGC,plasma glucose; [4],120 min
same,% TRPG0-3 hr,"plasma glucose; lung spray-IT, insulin 0.05 mg/kg alone, listed as Insulin alone",47 ± 10%
same,% MPGC,plasma glucose; [5],70.2%
same,% TRPG0→3 hr,plasma glucose; [5],10.5 ± 1.5%
same,AACE0→t,plasma glucose; [5],1892 ± 989 μU · min/ml
same,T % MPGC,plasma glucose; [5],180
same,% TRPG0→3 hr,"plasma glucose; spray-IT, porcine insulin 0.01 mg/kg, Table 3, listed as insulin",10.5%
same,% MPGC,plasma glucose; [6],35.69%
same,% TRPG0→3 hr,plasma glucose; [6],47.2 ± 9.5%
same,AACE0→t,plasma glucose; [6],8497 ± 1716 μU · min/ml
same,T % MPGC,plasma glucose; [6],120
same,% MPGC,plasma glucose; [7],35.3%
same,% TRPG0→3 hr,plasma glucose; [7],50.5 ± 12.7%
same,AACE0→t,plasma glucose; [7],9102 ± 2295 μU · min/ml
same,T % MPGC,plasma glucose; [7],120
same,% MPGC,plasma glucose; [8],30.6%
same,% TRPG0→3 hr,plasma glucose; [8],54.5 ± 6.5%
same,AACE0→t,plasma glucose; [8],10205 ± 1173 μU · min/ml
same,T % MPGC,plasma glucose; [8],60
same,% MPGC,plasma glucose; [9],13.1%
same,% TRPG0→3 hr,plasma glucose; [9],73.7 ± 3.1%
same,AACE0→t,plasma glucose; [9],13266 ± 570 μU · min/ml
same,T % MPGC,plasma glucose; [9],120
same,% TRPG0→3 hr,"plasma glucose; spray-IT, porcine insulin 1.0 mg/kg, Table 3, listed as insulin",73.7%
"CC(C(=O)[O-])c1ccc(NC(=O)c2ccccc2O)cc1.[Na+] (stereo not drawn) [Sodium Salt of Carrier B, Sodium 2-(4-(N-salicyloyl)aminophenyl)propionate]",solubility,Solubility of carriers,200 mg/mL
"CC(C(=O)O)c1ccc(NC(=O)c2ccccc2O)cc1 (stereo not drawn) [Carrier B, 2-(4-(N-salicyloyl)aminophenyl) propionic acid]",Cmax (serum insulin),[2],44.6 ± 10.0 μU/ml
COc1cccc(C(=O)Nc2ccc(CCC(=O)[O-])cc2)c1OC.[Na+] [Carrier C sodium salt],Cmax (serum insulin),[2],22.5 ± 4.0 μU/ml
"Cc1ccc(C(=O)NCCCCCCCC(=O)O)c(O)c1 [Carrier D, N-(4-methylsalicyloyl)-8-aminocaprylic acid]",Cmax (serum insulin),[2],58.8 ± 12.0 μU/ml
same,melting point,,113 to 114 °C
